Experiments:
[1] = target: mouse myeloma catalytic antibody MOPC 167 (IgA); details: from Pollack et al., Science 234: 1570-1573 (1986); cited from earlier work
[2] = system: MOPC 167 catalytic antibody (binding of anti-idiotype antibody 4G4); assay: Competitive ELISA using the free transition state analog: binding of anti-Id 4G4 to MOPC 167; parameters: species or system mouse; details: 10 mM TS analog present
Experimental: (§1) The first competitive ELISA uses the MOPC 167 catalytic antibody adsorbed onto microtitre plate wells. This assay measures the blocking effect of the p-nitrophenylphosphorylcholine transition state analog on the binding of anti-idiotype antibodies to MOPC 167 (FIG. 2, A versus B).
(§2) A true combining site-reactive anti-idiotype antibody will be prevented from interacting with MOPC 167 if this assay is performed in the presence of an excess of the transition state analog because that analog will preoccupy the catalytic combining site (FIG. 2, B). Since the anti-idiotype is blocked from attaching to MOPC 167 and will subsequently wash away, a reduced signal is obtained after the peroxidase-labeled, γ-specific anti-mouse IgG reagent and its substrate are added (compare FIG. 2, A, unblocked control and B, transition state analog blockade).
(§3) Binding of 4G4 and 1F1 to MOPC 167 was inhibited by 67% and 70% respectively when 10 mM p-nitrophenylphosphorylcholine TS analog was present.

[3] = system: MOPC 167 catalytic antibody (binding of anti-idiotype antibody 1F1); assay: Competitive ELISA using the free transition state analog: binding of anti-Id 1F1 to MOPC 167; parameters: species or system mouse; details: 10 mM TS analog present
Experimental: as §1, §2, §3

[4] = system: mouse myeloma catalytic antibody MOPC 167 (IgA); assay: MOPC 167 catalyzed acetylthiocholine hydrolysis (esterase activity, Ellman's reagent); assay type: biochemical; details: acetylthiocholine as substrate; analog concentration not given
Source text: It was recognized that the phosphocholine moiety might serve as a transition state analog for ester hydrolysis according to the scheme shown in FIG. 5. MOPC 167 was therefore tested for esterase activity using acetylthiocholine as a substrate and Ellman's reagent (E-ss-E) for the detection of thiol production (Izadyar et al., Proceedings of the National Academy of Sciences of the United States of America 90: 8876-80 (1993)).
Analysis of the Lineweaver-Burk plot for MOPC 167 catalyzed acetylthiocholine hydrolysis (FIG. 7) gave a Michaelis constant, km =627 μM and catalytic constant, kcat =0.25 min^-1 which were close to the values measured for carbonate ester hydrolysis (Pollack et al., Science 234: 1570-1573 (1986)). However, since spontaneous hydrolysis of this substrate is low, kuncat =4×10^-5 min^-1, the kcat /kuncat =6,000 is about 10-fold greater than that recorded for MOPC 167 catalysis of the carbonate ester reaction. That rate enhancement should be increased by using idiotypic mimicry.

Structure (SMILES): C[N+](C)(C)CCOP(=O)([O-])Oc1ccc([N+](=O)[O-])cc1 [p-nitrophenylphosphorylcholine]
- affinity Ka [1]: ~ 10^6 M^-1
- inhibition of binding of 4G4 to MOPC 167 [2]: 67%
- inhibition of binding of 1F1 to MOPC 167 [3]: 70%
- blockage of esterase activity by the non-cleavable transition state analog [4]: almost completely blocked
